Results published in PMC8776995 (Frontiers in Chemistry, 2022).
Values joined by “and” are separate entries in the source; they are usually repeats but may differ in a detail not shown here. Identical values can stand only once. Each block holds one compound with its values, some of them ahead of it.

What was measured:
[1] = target: wild-type EGFR (Homo sapiens, UniProt P00533); assay: EGFR kinase assay (ELISA); settings: for IC50: IC50 (μM) EGFR, ELISA, 3 μmol/L ATP; for A450: raw ELISA absorbance
[2] = system: H460 cells; assay: CCK-8 antiproliferation assay, H460; settings: for Inhibitory efficacy: H460 cells; for IC50: NCI-H460, 48 h, read-out: IC50 (μM) H460, CCK-8, 48 h, average ± SD of three independent experiments
[3] = system: A549 cells; assay: CCK-8 antiproliferation assay, A549; settings: for Inhibitory efficacy: A549 cells; for IC50: A549, 48 h, read-out: IC50 (μM) A549, CCK-8, 48 h, average ± SD of three independent experiments
Protocol: The compounds were dissolved in DMSO to make a 20 μM stock solution and diluted to the concentration of working solutions with complete growth medium before administration.
Cells were seeded in 96-well plates: 3,000–5,000 cells/well in 100 ul. One day after seeding, the test compounds at concentration between 1.0 and 16.0 μ M or 0.1% DMSO (as control) were added to cells in triplicate. 48 h later, CCK-8 was added and incubated the plate for 1–4 h in the incubator. The absorbance at 450 nm were measured using a microplate reader (Bio-Tek).

[4] = system: PC-9 cells; assay: CCK-8 antiproliferation assay, PC-9; settings: for IC50: PC-9, 48 h, read-out: IC50 (μM) PC-9; for Inhibitory efficacy: single repeats (Repeat 1-3), given as fraction
[5] = system: H1975 cells; assay: CCK-8 antiproliferation assay, H1975; settings: for Inhibitory efficacy: H1975 cells; for IC50: NCI-H1975, 48 h, read-out: IC50 (μM) H1975, CCK-8, 48 h, average ± SD of three independent experiments
[6] = concentration 0.03 nM, one value per replicate column
[7] = concentration 0.03 nM, one value per replicate column, 3e-05 µM
[8] = concentration 0.3 nM, one value per replicate column
[9] = concentration 0.3 nM, one value per replicate column, 0.0003 µM
[10] = concentration 3 nM, one value per replicate column
[11] = concentration 3 nM, one value per replicate column, 0.003 µM
[12] = concentration 30 nM, one value per replicate column
[13] = concentration 30 nM, one value per replicate column, 0.03 µM
[14] = concentration 300 nM, one value per replicate column
[15] = concentration 300 nM, one value per replicate column, 0.3 µM
[16] = concentration 3000 nM, one value per replicate column
[17] = concentration 3000 nM, one value per replicate column, 3 µM
[18] = concentration 30000 nM, one value per replicate column
[19] = concentration 30000 nM, one value per replicate column, 30 µM
[20] = 2uM, given as fraction, Repeat 1-3
[21] = 8uM, given as fraction, Repeat 1-3
[22] = 16uM, given as fraction, Repeat 1-3
[23] = Homo sapiens, NCI-H460, read-out: Inhibitory efficacy, H460 cells, 2uM, given as fraction, Repeat 1-3
[24] = Homo sapiens, NCI-H460, read-out: Inhibitory efficacy, H460 cells, 8uM, given as fraction, Repeat 1-3
[25] = Homo sapiens, NCI-H460, read-out: Inhibitory efficacy, H460 cells, 16uM, given as fraction, Repeat 1-3
[26] = 1uM, given as fraction, Repeat 1-3
[27] = 4uM, given as fraction, Repeat 1-3
[28] = Homo sapiens, A549, read-out: Inhibitory efficacy, A549 cells, 4uM, given as fraction, Repeat 1-3
[29] = Homo sapiens, A549, read-out: Inhibitory efficacy, A549 cells, 16uM, given as fraction, Repeat 1-3
[30] = Homo sapiens, NCI-H1975, read-out: Inhibitory efficacy, H1975 cells, 2uM, given as fraction, Repeat 1-3
[31] = Homo sapiens, NCI-H1975, read-out: Inhibitory efficacy, H1975 cells, 4uM, given as fraction, Repeat 1-3
[32] = Homo sapiens, NCI-H1975, read-out: Inhibitory efficacy, H1975 cells, 8uM, given as fraction, Repeat 1-3
[33] = Homo sapiens, NCI-H1975, read-out: Inhibitory efficacy, H1975 cells, 16uM, given as fraction, Repeat 1-3

Chain of wild-type EGFR (P00533 25-1210): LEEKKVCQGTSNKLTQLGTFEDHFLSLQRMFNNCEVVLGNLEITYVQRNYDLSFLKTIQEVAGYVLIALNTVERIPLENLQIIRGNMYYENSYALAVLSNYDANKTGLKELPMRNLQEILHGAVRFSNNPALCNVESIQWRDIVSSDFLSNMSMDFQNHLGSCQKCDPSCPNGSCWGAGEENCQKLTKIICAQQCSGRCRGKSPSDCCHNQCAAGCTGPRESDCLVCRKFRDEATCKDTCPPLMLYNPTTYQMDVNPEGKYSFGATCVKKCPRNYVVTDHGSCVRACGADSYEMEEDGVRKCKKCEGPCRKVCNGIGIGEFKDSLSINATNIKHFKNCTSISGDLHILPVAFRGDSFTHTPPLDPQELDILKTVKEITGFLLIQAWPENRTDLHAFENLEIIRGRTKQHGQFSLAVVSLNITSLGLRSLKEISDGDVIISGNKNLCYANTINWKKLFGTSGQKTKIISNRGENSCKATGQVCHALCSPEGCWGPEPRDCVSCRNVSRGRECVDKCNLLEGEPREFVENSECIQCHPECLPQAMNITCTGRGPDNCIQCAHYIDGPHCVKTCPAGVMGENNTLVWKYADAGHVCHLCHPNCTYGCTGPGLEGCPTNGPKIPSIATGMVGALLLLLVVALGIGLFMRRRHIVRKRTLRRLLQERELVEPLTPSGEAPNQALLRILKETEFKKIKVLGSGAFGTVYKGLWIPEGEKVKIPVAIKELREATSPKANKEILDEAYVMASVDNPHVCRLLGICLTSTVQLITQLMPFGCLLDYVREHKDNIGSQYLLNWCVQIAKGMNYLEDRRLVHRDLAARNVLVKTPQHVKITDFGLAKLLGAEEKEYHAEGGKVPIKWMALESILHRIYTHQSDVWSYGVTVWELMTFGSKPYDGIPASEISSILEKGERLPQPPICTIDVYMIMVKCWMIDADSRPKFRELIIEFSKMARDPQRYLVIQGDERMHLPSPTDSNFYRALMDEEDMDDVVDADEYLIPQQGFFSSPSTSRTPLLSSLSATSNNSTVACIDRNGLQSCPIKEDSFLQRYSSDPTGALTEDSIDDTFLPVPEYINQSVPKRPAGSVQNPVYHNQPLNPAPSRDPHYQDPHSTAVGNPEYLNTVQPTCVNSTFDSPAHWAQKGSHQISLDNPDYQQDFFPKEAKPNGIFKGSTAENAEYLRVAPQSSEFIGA

melting point: 110 to 114 °C
IC50 [1]: 10.7 µM
inhibition at 30 pM [1, 6]: 3.1%
Inhibition [1, 7]: 4.587
inhibition at 0.0003 µM [1, 8]: 5.16%
Inhibition [1, 9]: 5.242
inhibition at 0.003 µM [1, 10]: 5.55%
Inhibition [1, 11]: 6.684
inhibition at 0.03 µM [1, 12]: 10.7%
Inhibition [1, 13]: 8.781
inhibition at 0.3 µM [1, 14]: 11.4%
Inhibition [1, 15]: 9.699
inhibition at 3 µM [1, 16]: 22.2%
Inhibition [1, 17]: 18.3486
inhibition at 30 µM [1, 18]: 74.1%
Inhibition [1, 19]: 73.6566
A450 ([1]; concentration 0.0001 nM): 1.058 and 1.062
A450 ([1]; concentration 0.03 nM): 1.034 and 1.027
A450 ([1]; concentration 0.3 nM): 1.018 and 1.022
A450 ([1]; concentration 3 nM): 1.015 and 1.011
A450 ([1]; concentration 30 nM): 0.975 and 0.995
A450 ([1]; concentration 300 nM): 0.97 and 0.988
A450 ([1]; concentration 3000 nM): 0.886 and 0.922
A450 ([1]; concentration 30000 nM): 0.484 and 0.5
IC50 ([2]; Homo sapiens): 34.1 ± 2.5 µM
IC50 ([3]; Homo sapiens): > 100 µM
IC50 ([4]; Homo sapiens): > 100 µM
IC50 ([5]; Homo sapiens): 7.5 ± 0.49 µM
Structure (SMILES): CCOc1cccc(-n2cc(-c3cccc(Nc4ncnc5cc(OCCOC)c(OCCOC)cc45)c3)nn2)c1 [e14, [6,7-Bis-(2-methoxy-ethoxy)-quinazolin-4-yl]-{3-[1-(3-ethoxy-phenyl)-1H-[1,2,3]triazol-4-yl]-phenyl}-amine]
Inhibitory efficacy [2, 20]: 0.09418 and 0.1351
Inhibitory efficacy [2, 21]: 0.192 and 0.3038
Inhibitory efficacy [2, 22]: 0.3527 and 0.3328
inhibition at 2 µM [2, 23]: 8.02%
inhibition at 8 µM [2, 24]: 25.9%
inhibition at 16 µM [2, 25]: 30.4%
Inhibitory efficacy [3, 26]: 0.06697 and 0.1106
Inhibitory efficacy [3, 27]: 0.2585 and 0.1473
Inhibitory efficacy [3, 22]: 0.1909 and 0.2764
inhibition at 1 µM ([3]; Homo sapiens, A549, read-out: Inhibitory efficacy, A549 cells, 1uM, given as fraction, Repeat 1-3): 8.24%
inhibition at 4 µM [3, 28]: 25.4%
inhibition at 16 µM [3, 29]: 26.4%
Inhibitory efficacy [5, 26]: 0.1721 and 0.1925
Inhibitory efficacy [5, 20]: 0.2391 and 0.2224
Inhibitory efficacy [5, 27]: 0.4814 and 0.4311
Inhibitory efficacy [5, 21]: 0.5466 and 0.5764
Inhibitory efficacy [5, 22]: 0.5969 and 0.5615
inhibition at 1 µM ([5]; Homo sapiens, NCI-H1975, read-out: Inhibitory efficacy, H1975 cells, 1uM, given as fraction, Repeat 1-3): 20.6%
inhibition at 2 µM [5, 30]: 28.4%
inhibition at 4 µM [5, 31]: 34%
inhibition at 8 µM [5, 32]: 58.6%
inhibition at 16 µM [5, 33]: 57.3%

melting point: 87 to 90 °C
IC50 [1]: 49.4 µM
inhibition at 100 fM ([1]; concentration 0.0001 nM (reference for normalisation), one value per replicate column): 0%
inhibition at 30 pM [1, 6]: 4.93%
Inhibition [1, 7]: 3.3195
inhibition at 0.0003 µM [1, 8]: 5.78%
Inhibition [1, 9]: 3.734
inhibition at 0.003 µM [1, 10]: 6.42%
Inhibition [1, 11]: 4.357
inhibition at 0.03 µM [1, 12]: 7.71%
Inhibition [1, 13]: 6.432
inhibition at 0.3 µM [1, 14]: 13.1%
Inhibition [1, 15]: 8.091
inhibition at 3 µM [1, 16]: 13.3%
Inhibition [1, 17]: 12.4481
inhibition at 30 µM [1, 18]: 46.9%
Inhibition [1, 19]: 45.2282
A450 ([1]; concentration 0.0001 nM): 0.614 and 0.641
A450 ([1]; concentration 0.03 nM): 0.591 and 0.625
A450 ([1]; concentration 0.3 nM): 0.587 and 0.623
A450 ([1]; concentration 3 nM): 0.584 and 0.62
A450 ([1]; concentration 30 nM): 0.578 and 0.61
A450 ([1]; concentration 300 nM): 0.553 and 0.602
A450 ([1]; concentration 3000 nM): 0.552 and 0.581
A450 ([1]; concentration 30000 nM): 0.395 and 0.423
IC50 ([2]; Homo sapiens): 4.89 ± 0.23 µM
IC50 ([3]; Homo sapiens): 8.4 ± 0.29 µM
IC50 ([4]; Homo sapiens): 16 ± 1.04 µM
IC50 ([5]; Homo sapiens): 10.8 ± 1.57 µM
Structure (SMILES): COCCOc1cc2ncnc(Nc3cccc(-c4cn(-c5ccccc5OC)nn4)c3)c2cc1OCCOC [e11, [6,7-Bis-(2-methoxy-ethoxy)-quinazolin-4-yl]-{3-[1-(2-methoxy-phenyl)-1H-[1,2,3]triazol-4-yl]-phenyl}-amine]
Inhibitory efficacy [2, 20]: 0.2801 and 0.2884
Inhibitory efficacy [2, 27]: 0.5058 and 0.5573
Inhibitory efficacy [2, 21]: 0.6543 and 0.6301
Inhibitory efficacy [2, 22]: 0.6649 and 0.6664
inhibition at 2 µM [2, 23]: 34.4%
inhibition at 4 µM ([2]; Homo sapiens, NCI-H460, read-out: Inhibitory efficacy, H460 cells, 4uM, given as fraction, Repeat 1-3): 48.9%
inhibition at 8 µM [2, 24]: 64.7%
inhibition at 16 µM [2, 25]: 69.5%
Inhibitory efficacy [3, 20]: 0.1633 and 0.2142
Inhibitory efficacy [3, 27]: 0.2462 and 0.3291
Inhibitory efficacy [3, 21]: 0.4514 and 0.4662
Inhibitory efficacy [3, 22]: 0.7059 and 0.6624
inhibition at 2 µM ([3]; Homo sapiens, A549, read-out: Inhibitory efficacy, A549 cells, 2uM, given as fraction, Repeat 1-3): 20.1%
inhibition at 4 µM [3, 28]: 25%
inhibition at 8 µM ([3]; Homo sapiens, A549, read-out: Inhibitory efficacy, A549 cells, 8uM, given as fraction, Repeat 1-3): 52.7%
inhibition at 16 µM [3, 29]: 68.7%
inhibition at 8 µM ([4]; Homo sapiens, PC-9, read-out: Inhibitory efficacy, PC-9, 8uM, single repeats (Repeat 1-3), given as fraction): 27.4%
inhibition at 16 µM ([4]; Homo sapiens, PC-9, read-out: Inhibitory efficacy, PC-9, 16uM, single repeats (Repeat 1-3), given as fraction): 46.7%
Inhibitory efficacy ([4]; PC-9, 8uM, 8 µM): 0.2959 and 0.2658
Inhibitory efficacy ([4]; PC-9, 16uM, 16 µM): 0.4848 and 0.4258
Inhibitory efficacy [5, 20]: 0.257 and 0.2168
Inhibitory efficacy [5, 27]: 0.213 and 0.192
Inhibitory efficacy [5, 21]: 0.4311 and 0.3814
Inhibitory efficacy [5, 22]: 0.6071 and 0.5938
inhibition at 2 µM [5, 30]: 29.1%
inhibition at 4 µM [5, 31]: 32.2%
inhibition at 8 µM [5, 32]: 49.2%
inhibition at 16 µM [5, 33]: 59.9%
